Measurements as given in patent US5066818A, “Photochromic naphthopyran compounds” (PPG Industries, Inc., priority 1990, dated 1991).

Columns and labels:
[1] = Photochromic response on optical bench of naphthopyrans imbibed into polymer test samples; assay type: physicochemical; conditions: homopolymer of diethylene glycol bis(allyl carbonate); for Δ OD at SATURATION: 150 watt Xenon lamp, about one sun, twenty minutes exposure; for Bleach Rate T1/2: values in sec.
Description: Naphthopyran compounds prepared in the above-described Examples were imbibed by thermal transfer into test samples of a homopolymer of diethylene glycol bis(allyl carbonate) by the following procedure. Each naphthopyran was dissolved into toluene solvent to form a 4% solution of the compound. A piece of No. 4 Whatman filter paper was saturated with the naphthopyran solution and allowed to air dry. The dried filter paper was placed on one side of the polymer test sample, which measured 1/8 inch (0.3 centimeter)×2 inch (5.1 centimeters)×2 inch (5.1 centimeters). A piece of untreated filter paper was placed on the other side of the polymer test sample and the resulting sandwich placed between two plates of flat aluminum metal plates. The entire assembly was then placed in a 155° C. oven for a time sufficient to thermally transfer the naphthopyran into the polymer test sample.
The imbibed test samples were removed from the oven, washed with acetone, and tested for photochromic response rates on an optical bench. The samples were illuminated by a 150 watt Xenon lamp fitted with a copper sulfate bath and neutral density filter at an intensity of about one sun. The optical density at saturation was determined at twenty minutes exposure.

[2] = Photochromic behaviour (coloring, bleaching) stated in words; assay type: physicochemical; conditions: for coloring on exposure to ultraviolet light: near ultraviolet; for bleaching / rate of fade in words: room temperature and above, or ambient temperature

Δ OD at SATURATION [1]	Bleach Rate T1/2 [1] [min]	SMILES	coloring on exposure to ultraviolet light [2]	bleaching / rate of fade in words [2]
0.25	0.583	COc1ccc(C2(c3ccccc3)C=Cc3c(ccc4ccccc34)O2)cc1 (centres unmarked) [Comparative Example 2, 3-phenyl-3(4-methoxyphenyl)-3H-naphtho[2,1-b]pyran]		
1.63		FC(F)(F)c1ccc(C2(c3ccccc3)C=Cc3ccc4ccccc4c3O2)cc1 (centres unmarked) [Comparative Example 4, 3-phenyl-3(4-trifluoromethylphenyl)-2H-naphtho[1,2-b]pyran]		
1.35	8.5	COc1ccc(C2(c3ccc(OC)cc3C)C=Cc3c(ccc4ccccc34)O2)cc1 (centres unmarked) [Example 3, 3(2-methyl-4-methoxyphenyl)-3-(4methoxyphenyl)-3H-naphtho-[2,1-b]pyran]		
2.40	10	COc1ccc(C2(c3ccccc3C)C=Cc3c(ccc4ccccc34)O2)cc1 (centres unmarked) [Example 4, 3(2-methylphenyl)-3-(4-methoxyphenyl)-3H-naphtho[2,1-b]pyran]		
1.42	8.5	COc1ccc(C2(c3ccccc3)C=Cc3c(ccc4ccccc34)O2)c(OC)c1 (centres unmarked) [Example 5, 3-phenyl-3-(2,4-dimethoxyphenyl)-3H-naphtho[2,1-b]pyran]		
2.23		COc1ccc(C2(c3c(F)cccc3F)C=Cc3c(ccc4ccccc34)O2)cc1 (centres unmarked) [Example 6, 3(2,6-difluorophenyl)-3(4-methoxyphenyl)-3H-naphtho[2,1-b]pyran]		
1.37		C1=CC(c2ccccc2)(c2ccccc2)Oc2c1ccc1ccccc21 [a., 2,2diphenyl-2H naphthol[1,2b]pyran]	colors on exposure to near ultraviolet light at room temperature	does not bleach in a reasonable period of time
0.36	0.75	C1=CC(c2ccccc2)(c2ccccc2)Oc2ccc3ccccc3c21 [compound 1, 3,3-diphenyl-3H-naphtho[2,1-b]pyran]	change color on exposure to the near ultraviolet	bleaches too rapidly for use in an ophthalmic lens
0.21	0.667	COc1ccc(C2(c3ccc(C)cc3)C=Cc3c(ccc4ccccc34)O2)cc1 (centres unmarked) [compound 3, 3(4-methylphenyl)-3-(4-methoxyphenyl)-3H-naphtho[2,1-b]pyran]		
1.07		FC(F)(F)c1cccc(C2(c3cccc(C(F)(F)F)c3)C=Cc3ccc4ccccc4c3O2)c1 [compound 5, 3,3-di(3-trifluoromethyl)phenyl-2H-naphtho [1,2-b]pyran]		
